Test results taken from patent US7462598B2, “Antimicrobial theta defensins, analogs thereof, and methods of use” (priority 2002, dated 2008).
Bridge positions count the residues as written; N and C are the ends. Peptide text beside a SMILES is read from it.

Columns and labels:
S. aureus 502a = experiment: Cell-suspension microbicidal assay (MMC); format: cell-based, Staphylococcus aureus; details: lowest concentration that reduced cell viability by 99.9%; 10 mM PIPES, 5 mM glucose, pH 7.4; 2 h 37° C.
In short: (§1)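 Log-phase microbes (2×10^6 CFU/ml) exposed to two-fold peptide dilutions (0.062-8.0 μg/ml) in 10 mM PIPES, 5 mM glucose, pH 7.4, 2 h at 37 °C, then diluted 1:10 to 1:10^6 in broth and grown 24-48 h. MMC is the lowest concentration giving ≥99.9% killing (no pellet at 1:10^3).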

C. albicans 16820 = experiment: Cell-suspension microbicidal assay (MMC); format: cell-based, Candida albicans; details: lowest concentration that reduced cell viability by 99.9%; 10 mM PIPES, 5 mM glucose, pH 7.4; 2 h 37° C.
In short: as §1

[1] = molecular target: T1, recombinant β-galactosidase (Escherichia coli, UniProt P00722); experiment: Inhibition of purified β-galactosidase (ONPG hydrolysis); format: biochemical; details: 4 μg/ml, the highest peptide concentration tested; 10 nM enzyme
T1 construct: gift from Dr. Donald P. Satchell, University of California, Irvine, Department of Pathology
Protocol: Dose-dependent rates of ONPG hydrolysis were determined using 10 nM of purified β-galactosidase.
The effect of each peptide on β-galactosidase-dependent ONPG hydrolysis was determined by incubating 0-4 μg/ml of each peptide with recombinant β-galactosidase (a gift from Dr. Donald P. Satchell, University of California, Irvine, Department of Pathology) and 3 mM ONPG as described above.

E. coli ML35 [2] = experiment: Membrane permeabilization assay (ONPG hydrolysis); format: cell-based, Escherichia coli; details: rates at 1 μg/ml concentration of each peptide
In short: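 ONPG hydrolysis by log-phase E. coli ML35 (1×10^6 CFU/ml) in 10 mM PIPES pH 7.4 with 3 mM ONPG, peptides at 0-8.0 μg/ml final; A405 followed for 60 min. Control: 0-4 μg/ml peptide incubated with recombinant β-galactosidase and 3 mM ONPG.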

[3] = tested on: S. aureus 502a, E. coli ML35, and C. albicans 16820; experiment: Cell-suspension microbicidal assay, statements across the test organisms (lowest MMC, overall ranges); format: cell-based
In short: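 Log-phase organisms (2×10^6 CFU/ml) were exposed for 2 h at 37° C. to peptide (0.062–8.0 μg/ml final) in 10 mM PIPES/5 mM glucose, pH 7.4, then serially diluted in broth and grown 24–48 h. MMC was defined as ≥99.9% killing (no pellet at 1:10^3). SI was calculated as concentration giving 3% hemolysis in PBS divided by lowest MMC.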

E. coli ML35 [4] = experiment: Cell-suspension microbicidal assay (MMC); format: cell-based, Escherichia coli; details: lowest concentration that reduced cell viability by 99.9%; 10 mM PIPES, 5 mM glucose, pH 7.4; 2 h 37° C.
In short: as §1

E. coli ML35 [5] = experiment: Microbicidal assay by colony counting (Example I); format: cell-based, Escherichia coli
Protocol: The limit of detection (1 colony per plate) was equal to 1×10^3 CFU/ml in the incubation mixture.
Microbicidal activity of each peptide was determined by incubating 2×10^6 CFU/ml with peptides (0.5-12 μg/ml) in 50 μl of 10 mM PIPES buffer containing 5 mM glucose, pH 7.4. […] After 37° C. incubation for 18-48 h, colonies were counted and cell survival was expressed as CFU/ml.

E. coli ML35 [6] = experiment: Agar diffusion assay; format: cell-based, Escherichia coli; details: diameter of clearing, FIG. 3
Protocol: Briefly, 10-μl wells were bored in a 9-cm^2 plate of agarose, buffered with 10 mM 1,4-piperazinebis(ethanesulfonic acid) (PIPES), pH 7.4, containing 5 mM glucose, and seeded with 1×10^6 mid-log phase cells. Five-μl aliquots of peptides, dissolved in 0.01% HOAc at 10-300 μg/ml, were added to each well. After incubation at 37° C. for 2 h, the seeded agar was overlaid with molten agarose containing 6% trypticase soy broth (for bacteria) or Sabouraud dextrose broth (for fungi). Plates were incubated at 37° C. for 18-24 h, and antimicrobial activity was determined by measuring the diameter of clearing around each well.

T1 sequence (P00722 2-1024): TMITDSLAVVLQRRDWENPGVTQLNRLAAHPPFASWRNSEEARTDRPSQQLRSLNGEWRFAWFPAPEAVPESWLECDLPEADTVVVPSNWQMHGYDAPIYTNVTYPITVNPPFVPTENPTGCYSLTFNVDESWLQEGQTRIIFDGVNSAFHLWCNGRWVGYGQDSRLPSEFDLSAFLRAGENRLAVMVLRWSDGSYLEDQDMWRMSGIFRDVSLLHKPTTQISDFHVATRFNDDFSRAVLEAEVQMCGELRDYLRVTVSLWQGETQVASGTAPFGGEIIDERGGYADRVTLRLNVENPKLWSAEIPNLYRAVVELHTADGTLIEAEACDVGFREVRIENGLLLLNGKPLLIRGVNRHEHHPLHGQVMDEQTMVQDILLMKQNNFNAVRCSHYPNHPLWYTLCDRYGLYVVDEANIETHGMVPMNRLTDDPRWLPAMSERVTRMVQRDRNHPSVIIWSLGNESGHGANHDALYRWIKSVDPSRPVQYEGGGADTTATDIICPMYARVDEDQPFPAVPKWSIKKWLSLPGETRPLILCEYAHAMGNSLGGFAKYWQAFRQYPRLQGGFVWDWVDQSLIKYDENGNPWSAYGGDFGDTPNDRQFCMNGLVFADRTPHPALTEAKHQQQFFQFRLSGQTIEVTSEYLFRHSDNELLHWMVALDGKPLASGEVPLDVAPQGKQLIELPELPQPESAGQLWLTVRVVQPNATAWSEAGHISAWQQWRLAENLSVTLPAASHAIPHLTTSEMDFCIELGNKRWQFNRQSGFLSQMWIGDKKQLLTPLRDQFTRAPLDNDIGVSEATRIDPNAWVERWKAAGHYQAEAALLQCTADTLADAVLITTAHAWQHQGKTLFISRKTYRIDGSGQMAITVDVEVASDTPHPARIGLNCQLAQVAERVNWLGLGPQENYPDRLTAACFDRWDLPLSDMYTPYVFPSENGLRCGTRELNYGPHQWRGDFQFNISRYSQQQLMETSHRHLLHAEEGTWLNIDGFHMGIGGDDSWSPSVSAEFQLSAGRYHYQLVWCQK

With `CC(C)C[C@@H]1NC(=O)[C@@H]2CSSC[C@H](NC(=O)[C@H](CCCNC(=N)N)NC(=O)[C@@H]3CSSC[C@H](NC1=O)C(=O)N[C@@H](CCCNC(=N)N)C(=O)N[C@@H](CCCNC(=N)N)C(=O)NCC(=O)N[C@@H](C(C)C)C(=O)N3)C(=O)N[C@@H](CC(C)C)C(=O)N[C@H]1CSSC[C@H](NC(=O)[C@H](C(C)C)NC(=O)CNC(=O)[C@H](CCCNC(=N)N)NC(=O)[C@H](CCCNC(=N)N)NC1=O)C(=O)N[C@@H](CCCNC(=N)N)C(=O)N2` [RTD-3] (cyclo(CLCRRGVCRCLCRRGVCR); disulfide 1-10, 3-8, 12-17) the “MMC, S. aureus” value (S. aureus 502a) was 1.0 µg/mL, the “MMC, C. albicans” value (C. albicans 16820) was 1.0 µg/mL and the “reduction of ONPG hydrolysis by purified β-galactosidase” value [1] was 50%. The ONPG hydrolysis (E. coli ML35 [2]) was 9.2 (A405/sec) · 10^−5, the “MMC, range over the test organisms” value ([3]; S. aureus, E. coli and C. albicans, 10 mM PIPES, 5 mM glucose, pH 7.4) was 1 to 2 µg/mL and the M ([3]; peptide concentration that kill 99.9% of either S. aureus, E. coli, or C. albicans, lowest MMC value) was 1 µg/mL. For the same compound, the “MMC, E. coli” value (E. coli ML35 [4]) was 2.0 µg/mL, the “amount of peptide required to achieve the microbicidal effect of RTD-1 and 2” value (E. coli ML35 [5]; killing of E. coli, 2 h) was “approximately twice as much of the peptide was required” and the “activity against E. coli compared with RTD-1 and -2” value (E. coli ML35 [5]; longer incubation times (4 or 6 h)) was “nearly equivalent”. The “fold less active than RTD-1 and RTD-2 against E. coli” value (E. coli ML35 [6]) was 2- to 3 fold.
